Measured values from paper PMC4868099 (ACS Medicinal Chemistry Letters, 2016).
“Also recorded” adds a separate entry of the source. One block for each molecule: values may come before it.

Tests used:
[1] = biological target: T1, human kidney-type glutaminase (hKGA124–669) (Homo sapiens, UniProt O94925); type: biochemical
T1 sequence (O94925 124-669): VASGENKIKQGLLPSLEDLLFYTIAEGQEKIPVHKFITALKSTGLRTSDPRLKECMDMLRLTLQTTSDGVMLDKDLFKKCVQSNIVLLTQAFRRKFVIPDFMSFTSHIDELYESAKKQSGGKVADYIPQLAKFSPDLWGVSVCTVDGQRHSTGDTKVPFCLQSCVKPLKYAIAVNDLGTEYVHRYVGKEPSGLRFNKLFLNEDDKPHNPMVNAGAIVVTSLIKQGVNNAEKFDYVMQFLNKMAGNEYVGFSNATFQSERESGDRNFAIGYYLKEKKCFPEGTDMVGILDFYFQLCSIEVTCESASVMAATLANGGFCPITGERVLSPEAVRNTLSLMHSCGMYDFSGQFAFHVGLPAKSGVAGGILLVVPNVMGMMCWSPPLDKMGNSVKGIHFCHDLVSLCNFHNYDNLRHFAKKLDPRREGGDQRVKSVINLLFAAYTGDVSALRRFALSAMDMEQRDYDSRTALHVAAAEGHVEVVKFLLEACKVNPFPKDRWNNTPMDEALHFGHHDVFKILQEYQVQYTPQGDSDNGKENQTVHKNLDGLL

MDA-MB-231 = experiment: Cell growth / viability, CellTiter-Glo, MDA-MB-231; type: cell-based, human; settings: 72 h of incubation
HCC1806 = experiment: Cell growth / viability, CellTiter-Glo, HCC1806; type: cell-based, human; settings: 72 h of incubation
[2] = system: GLS (both KGA and GAC isoenzymes) over GLS2; settings: cited from earlier work

SMILES: O=C(Cc1ccccc1)Nc1nnc(CCCCc2nnc(NC(=O)Cc3ccc(O)cc3)s2)s1 [compound 2m, 4-hydroxy-N-[5-[4-[5-[(2-phenylacetyl)amino]-1,3,4-thiadiazol-2-yl]butyl]-1,3,4-thiadiazol-2-yl]-benzeneacetamide]
increase in GLS inhibitory potency from the corresponding acetoxy derivative 2j [1]: ~8 fold | time dependency of GLS inhibitory potency (effect of preincubation time) ([1]; Figure 2): no time-dependent increase in GLS inhibitory potency; also recorded: did not exhibit time-dependency | antiproliferative effect compared with BPTES and CB-839 in MDA-MB-231 (MDA-MB-231): least effective | growth inhibition of MDA-MB-231 (MDA-MB-231; 1000 nM, P < 0.05 compared to controls): statistically significant growth inhibition | antiproliferative effect compared with BPTES and CB-839 in HCC1806 (HCC1806): least effective

higher GLS inhibitory potency compared with 2p [1]: 10 fold
SMILES: O=C(Cc1ccc(O)cc1)Nc1nnc(CCCCc2nnc(NC(=O)Cc3ccc(O)cc3)s2)s1 [2q]

SMILES: [N-]=[N+]=CC(=O)CC[C@H](N)C(=O)O [DON, 6-Diazo-5-oxo-L-norleucine]
selectivity GLS versus GLS2 [2]: inhibits both GLS and GLS2
